Literature values in patent US11603489B2, “Method for inhibiting water permeation in an extraction well of a hydrocarbon oil from an underground reservoir” (priority 2016, dated 2023).
Where two headings read alike, the source gives them in different places.

Assays:
[1] = temperature at which the initiator has a half-life of 10 hours
[2] = not given; remark: listed apart in the source
[3] = temperature at which the initiator has a half-life of 10 hours, in benzene
[4] = distribution coefficient between water and 1-octanol

| Structure (SMILES) | T1/2(10 h) in water [1] [°C] | Log P octanol/water [2, 4] | other results |
| --- | --- | --- | --- |
| CC(C)(N=NC(C)(C)C(=N)N)C(=N)N.Cl.Cl [2,2′-Azobis(2-methylpropionamidine) dihydrochloride] |  |  | T1/2(10 h) in water ([1]; dihydrochloride): 55 °C |
| CC(C#N)(CCC(=O)O)N=NC(C)(C#N)CCC(=O)O (stereo not drawn) [4,4′-Azobis(4-cyanovaleric acid)] | 50 |  |  |
| CC(C)(C#N)N=NC(N)=O [Composition V-30, 1-[(1-cyano-1-methylethyl)azo]formamide] |  | > 0 | T1/2(10 h) in benzene [3]: 104 °C |
| CCC(C)(C#N)N=NC(C)(C#N)CC (stereo not drawn) [Composition V-59, 2,2′-azobis(2-methylbutyronitrile)] |  | > 0 |  |
| CC(C)(N=NC(C)(C)C(=O)NC(CO)(CO)CO)C(=O)NC(CO)(CO)CO [VA080, 2,2′-Azobis{2-methyl-N-[1,1-bis(hydroxymethyl)-2-hydroxyethyl]propionamide}] | 80 |  | Log P octanol/water [2]: < 0 |
| CC(C)(N=NC(C)(C)C(=O)NCCO)C(=O)NCCO [VA086, 2,2′-Azobis[2-methyl-N-(2-hydroxyethyl)propionamide]] | 87 |  |  |
| CC(C)(N=NC(C)(C)C1=NCCN1)C1=NCCN1.Cl.Cl [VA-044, 2,2′-Azobis[2-(2-imidazolin-2-yl)propane]dihydrochloride] | 44 |  |  |
| CC(C)(N=NC(C)(C)C1=NCCN1)C1=NCCN1.O.O.O=S(=O)(O)O.O=S(=O)(O)O [VA-046B, 2,2′-Azobis[2-(2-imidazolin-2-yl)propane]disulfate dihydrate] | 47 |  |  |
| CC(C)(N=NC(C)(C)C(=N)NCCC(=O)O)C(=N)NCCC(=O)O.O.O.O.O [VA-057, 2,2′-Azobis[N-(2-carboxyethyl)-2-methylpropionamidine]tetrahydrate] | 57 | < 0 |  |
| CC(C)(N=NC(C)(C)C1=NCCN1CCO)C1=NCCN1CCO.Cl.Cl [VA-060, 2,2′-Azobis{2-[1-(2-hydroxyethyl)-2-imidazolinyl]propane}-dihydrochloride] | 60 | < 0 |  |
| CC(C)(N=NC(C)(C)C1=NCCN1)C1=NCCN1 [VA-061, 2,2′-Azobis[2-(2-imidazolin-2-yl)propane]] | 61 |  |  |
| CCC(C)(N=NC(C)(CC)C(=N)N1CCCC1)C(=N)N1CCCC1.Cl.Cl (stereo not drawn) [VA-067, 2,2′-Azobis(1-imino-1-pyrrolidine-2-ethylpropane)-dihydrochloride] | 67 |  |  |
| CCCCNC(=O)C(C)(C)N=NC(C)(C)C(=O)NCCCC [VAm-110, 2,2′-azobis(N-butyl-2-methylpropionamide)] |  |  | T1/2(10 h) in benzene: 110 °C; Log P octanol/water [2]: > 0 |
| CC(C)(N=NC(C)(C)C(=O)NC1CCCCC1)C(=O)NC1CCCCC1 [VAm-111, 2,2′-azobis(N-cyclohexyl-2-methylpropionamide)] |  |  | T1/2(10 h) in benzene: 111 °C; Log P octanol/water [2]: > 0 |
| C=CCNC(=O)C(C)(C)N=NC(C)(C)C(=O)NCC=C [VF-096, 2,2′-azobis[N-(2-propenyl)-2-methylpropionamide]] |  |  | T1/2(10 h) in benzene: 96 °C; Log P octanol/water [2]: > 0 |
| N.N.O=S(=O)(O)OOS(=O)(=O)O [ammonium persulfate] | 65 |  |  |
| O=C(OOC(=O)c1ccccc1)c1ccccc1 [benzoyl peroxide] |  | > 0 |  |
| CC(C)(OOC(C)(C)c1ccccc1)c1ccccc1 [dicumyl peroxide] |  | > 0 | T1/2(10 h) in benzene [3]: 75 °C |
| O.O.O=S(=O)([O-])CO.[Na+] [hydroxymethanesulfonic acid monosodium salt dihydrate] | 60 | < 0 |  |
| CCCCCCCCCCCC(=O)OOC(=O)CCCCCCCCCCC [lauroyl peroxide] |  | > 0 | T1/2(10 h) in benzene [3]: 75 °C |
| O=S(=O)([O-])OOS(=O)(=O)[O-].[K+].[K+] [potassium persulfate] | 65 |  |  |
| O=S(=O)([O-])OOS(=O)(=O)[O-].[Na+].[Na+] [sodium persulfate] | 65 |  |  |
| CC(C)(C)OOC(C)(C)C [tert-butyl peroxide] |  | > 0 | T1/2(10 h) in benzene [3]: 70 °C |
| CC(C)(C)OOC(=O)c1ccccc1 [tert-butyl peroxybenzoate] |  | > 0 | T1/2(10 h) in benzene [3]: 73 °C |
